From ChEMBL document CHEMBL4020763, “N-(1H-Pyrazol-3-yl)quinazolin-4-amines as a novel class of casein kinase 1δ/ε inhibitors: Synthesis, biological evaluation and molecular modeling studies” (Bioorg Med Chem Lett, 2017)

Key:
[1] = Inhibition of M-phase starfish oocytes CDK1/cyclin B using histone H1 as substrate after 30 mins in presence of ATP by scintillation counting method; set-up: species or system Asteroidea
CDK2/Cyclin A2 = CDK2/Cyclin A2 (Homo sapiens, UniProt P24941); test: Inhibition of recombinant human CDK2/cyclin A using histone H1 as substrate after 30 mins in presence of ATP by scintillation counting method; type: protein-complex assay
[2] = target: Glycogen synthase kinase-3 (Sus scrofa, UniProt B2LUN4+I6LNT8); test: Inhibition of porcine brain GSK-3 alpha/beta using YRRAAVPPSPSLSRHSSPHQpSEDEEE as substrate after 30 mins in presence of ATP by scintillation counting method
MIA PaCa-2 [3] = test: Cytotoxicity against human MIAPaCa2 cells by MTT assay; type: functional, cell-based
ZR-75-30 [4] = test: Cytotoxicity against human ZR-7530 cells by MTT assay; type: functional, cell-based
HEK293 = test: Cytotoxicity against HEK293 cells by MTT assay; type: cell-based; settings: Homo sapiens
MDA-MB-468 [5] = test: Growth inhibition of human MDA-MB-468 cells at 100 uM by MTT assay relative to control; type: functional; settings: read-out: GI
[6] = target: Glycogen synthase kinase-3 (Sus scrofa) (UniProt B2LUN4+I6LNT8); test: Inhibition of porcine brain GSK-3 alpha/beta at 10 uM using YRRAAVPPSPSLSRHSSPHQpSEDEEE as substrate after 30 mins in presence of ATP by scintillation counting method relative to control
[7] = target: CDK2/Cyclin A2 (Homo sapiens) (UniProt P24941+P20248); test: Inhibition of recombinant human CDK2/cyclin A at 10 uM using histone H1 as substrate after 30 mins in presence of ATP by scintillation counting method relative to control; type: protein-complex assay
[8] = target: Dual specificity protein kinase CLK1 (Mus musculus) (UniProt P22518); test: Inhibition of recombinant mouse GST-fused CLK1 expressed in Escherichia coli at 10 uM using RS peptide as substrate after 30 mins in presence of ATP by scintillation counting method relative to control
Dual specificity protein kinase CLK1 (Mus musculus), sequence (P22518 whole entry, looked up, the tested form may be a part): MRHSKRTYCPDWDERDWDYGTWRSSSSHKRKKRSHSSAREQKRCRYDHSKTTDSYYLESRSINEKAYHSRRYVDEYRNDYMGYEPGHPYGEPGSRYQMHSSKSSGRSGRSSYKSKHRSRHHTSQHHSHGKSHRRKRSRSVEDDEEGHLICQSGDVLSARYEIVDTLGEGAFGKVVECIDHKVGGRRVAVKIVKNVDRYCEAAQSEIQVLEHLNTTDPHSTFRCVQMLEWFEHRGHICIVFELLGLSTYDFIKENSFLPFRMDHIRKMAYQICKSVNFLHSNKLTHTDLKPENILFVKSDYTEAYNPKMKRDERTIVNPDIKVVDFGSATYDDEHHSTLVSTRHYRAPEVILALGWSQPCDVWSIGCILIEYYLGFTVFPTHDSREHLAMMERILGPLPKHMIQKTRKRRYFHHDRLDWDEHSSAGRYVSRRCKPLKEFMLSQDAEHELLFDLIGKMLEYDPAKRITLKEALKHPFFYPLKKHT

HCT-15 [9] = test: Growth inhibition of human HCT15 cells at 100 uM by MTT assay relative to control; type: functional; settings: read-out: GI
ZR-75-1 [10] = test: Cytotoxicity against human ZR-75-1 cells by MTT assay; type: functional, cell-based
PANC-1 [11] = test: Growth inhibition of human PANC1 cells at 100 uM by MTT assay relative to control; type: functional; settings: read-out: GI
A549 [12] = test: Growth inhibition of human A549 cells at 100 uM by MTT assay relative to control; type: functional; settings: read-out: GI
ZR-75-1 [13] = test: Growth inhibition of human ZR-75-1 cells at 100 uM by MTT assay relative to control; type: functional; settings: read-out: GI
[14] = Growth inhibition of HEK293 cells at 100 uM by MTT assay relative to control; type: cell-based; settings: human, read-out: GI
MDA-MB-231 [15] = test: Growth inhibition of human MDA-MB-231 cells at 100 uM by MTT assay relative to control; type: functional; settings: read-out: GI
DU-145 = test: Growth inhibition of human DU145 cells at 100 uM by MTT assay relative to control; type: functional; settings: read-out: GI
MCF7 [16] = test: Growth inhibition of human MCF7 cells at 100 uM by MTT assay relative to control; type: functional; settings: read-out: GI
Sus scrofa = organism: Sus scrofa; test: Inhibition of porcine brain CK1-delta/epsilon at 10 uM using CSK peptide as substrate after 30 mins in presence of ATP by scintillation counting method relative to control
BT-20 [17] = test: Growth inhibition of human BT20 cells at 100 uM by MTT assay relative to control; type: functional; settings: read-out: GI
MDA-MB-468 [18] = test: Cytotoxicity against human MDA-MB-468 cells by MTT assay; type: functional, cell-based
ZR-75-30 [19] = test: Growth inhibition of human ZR-7530 cells at 100 uM by MTT assay relative to control; type: functional; settings: read-out: GI
HCT-15 [20] = test: Cytotoxicity against human HCT15 cells by MTT assay; type: functional, cell-based
Asteroidea = test: Inhibition of M-phase starfish oocytes CDK1/cyclin B at 10 uM using histone H1 as substrate after 30 mins in presence of ATP by scintillation counting method relative to control
MCF7 [21] = test: Cytotoxicity against human MCF7 cells by MTT assay; type: functional, cell-based
BT-20 [22] = test: Cytotoxicity against human BT20 cells by MTT assay; type: functional, cell-based
A549 [23] = test: Cytotoxicity against human A549 cells by MTT assay; type: functional, cell-based
[24] = target: Cyclin-dependent kinase 5/CDK5 activator 1 (Homo sapiens) (UniProt Q00535+Q15078); test: Inhibition of recombinant human CDK5/p25 expressed in Escherichia coli at 10 uM using histone H1 as substrate after 30 mins in presence of ATP by scintillation counting method relative to control
Cyclin-dependent kinase 5/CDK5 activator 1 (Homo sapiens), sequence (Q00535 whole entry): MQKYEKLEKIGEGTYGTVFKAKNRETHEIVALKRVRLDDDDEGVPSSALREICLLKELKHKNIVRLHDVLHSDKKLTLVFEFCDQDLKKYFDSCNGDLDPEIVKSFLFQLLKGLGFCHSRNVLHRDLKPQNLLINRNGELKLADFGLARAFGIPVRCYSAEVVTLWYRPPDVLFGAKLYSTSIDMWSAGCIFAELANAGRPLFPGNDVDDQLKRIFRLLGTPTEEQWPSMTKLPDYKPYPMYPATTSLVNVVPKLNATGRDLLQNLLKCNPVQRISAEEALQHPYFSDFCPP
Cyclin-dependent kinase 5/CDK5 activator 1 (Homo sapiens), sequence (Q15078 99-307 partner limits assumed): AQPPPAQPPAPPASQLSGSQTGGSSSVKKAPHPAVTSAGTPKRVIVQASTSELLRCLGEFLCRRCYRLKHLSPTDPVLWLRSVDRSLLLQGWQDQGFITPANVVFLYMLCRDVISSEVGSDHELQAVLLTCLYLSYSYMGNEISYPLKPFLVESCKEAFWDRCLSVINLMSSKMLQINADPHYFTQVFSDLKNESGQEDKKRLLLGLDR

MDA-MB-231 [25] = test: Cytotoxicity against human MDA-MB-231 cells by MTT assay; type: functional, cell-based
[26] = target: CDK9/cyclin T1 (Homo sapiens) (UniProt O60563+P50750); test: Inhibition of recombinant human CDK9/cyclin T expressed in insect cells at 10 uM using YSPTSPSYSPTSPSYSPTSPSKKKK as substrate after 30 mins in presence of ATP by scintillation counting method relative to control
[27] = target: Dual specificity protein kinase CLK1 (Mus musculus, UniProt P22518); test: Inhibition of recombinant mouse GST-fused CLK1 expressed in Escherichia coli using RS peptide as substrate after 30 mins in presence of ATP by scintillation counting method
Dual specificity protein kinase CLK1, sequence (P22518 whole entry, the tested form may be a part): as the sequence (P22518 whole entry, looked up, the tested form may be a part) above

[28] = Inhibition of porcine brain CK1-delta/epsilon using CSK peptide as substrate after 30 mins in presence of ATP by scintillation counting method; set-up: species or system Sus scrofa
[29] = target: Dual specificity tyrosine-phosphorylation-regulated kinase 1A (Homo sapiens) (UniProt Q13627); test: Inhibition of recombinant full length human GST-fused DYRK1A expressed in Escherichia coli at 10 uM using RS peptide as substrate after 30 mins in presence of ATP by scintillation counting method relative to control
MIA PaCa-2 [30] = test: Growth inhibition of human MIAPaCa2 cells at 100 uM by MTT assay relative to control; type: functional; settings: read-out: GI
PANC-1 [31] = test: Cytotoxicity against human PANC1 cells by MTT assay; type: functional, cell-based

SMILES | IC50 [1] | IC50 (CDK2/Cyclin A2) | IC50 [2] | IC50 (MIA PaCa-2 [3]) | IC50 (ZR-75-30 [4]) | IC50 (HEK293) | inhibition of growth at 100 µM (MDA-MB-468 [5]) | inhibition [6] | inhibition [7] | inhibition [8] | inhibition of growth at 100 µM (HCT-15 [9]) | IC50 (ZR-75-1 [10]) | inhibition of growth at 100 µM (PANC-1 [11]) | inhibition of growth at 100 µM (A549 [12]) | inhibition of growth at 100 µM (ZR-75-1 [13]) | inhibition at 100 µM [14] | inhibition of growth at 100 µM (MDA-MB-231 [15]) | inhibition of growth at 100 µM (DU-145) | inhibition of growth at 100 µM (MCF7 [16]) | inhibition (Sus scrofa) | further results
COc1ccc2c(c1)[nH]c1c(C)nccc12 [HARMINE] | > 10 µM | > 10 µM | > 10 µM |  |  |  |  |  |  |  |  |  |  |  |  |  |  |  |  |  | 
COc1cc2ncnc(Nc3cc(-c4ccc(F)cc4)[nH]n3)c2cc1OC | > 10 µM | > 10 µM | > 10 µM | > 100 µM | > 100 µM | > 100 µM | > 50% | > 50% | > 50% | > 50% | > 50% | > 100 µM | > 50% | > 50% | > 50% | > 50% | > 50% | > 50% | > 50% | > 50% | inhibition of growth at 100 µM (BT-20 [17]): > 50%; IC50 (MDA-MB-468 [18]): > 100 µM; inhibition of growth at 100 µM (ZR-75-30 [19]): > 50%; IC50 (HCT-15 [20]): > 100 µM; inhibition (Asteroidea): > 50%; IC50 (MCF7 [21]): > 100 µM; IC50 (BT-20 [22]): > 100 µM; IC50 (A549 [23]): > 100 µM; inhibition [24]: > 50%; IC50 (MDA-MB-231 [25]): > 100 µM; inhibition [26]: > 50%; IC50 [27]: > 10 µM; IC50 [28]: 1.4 µM; inhibition [29]: > 50%; inhibition of growth at 100 µM (MIA PaCa-2 [30]): > 50%; IC50 (PANC-1 [31]): 69.4 µM
COc1cc2ncnc(Nc3cc(-c4ccc(Cl)cc4)[nH]n3)c2cc1OC | > 10 µM | > 10 µM | > 10 µM | < 100 µM | 91.5 µM | 81.2 µM | > 50% | > 50% | > 50% | > 50% | > 50% | > 100 µM | > 50% | > 50% | > 50% | > 50% | > 50% | > 50% | > 50% | > 50% | inhibition of growth at 100 µM (BT-20 [17]): > 50%; IC50 (MDA-MB-468 [18]): 79.5 µM; inhibition of growth at 100 µM (ZR-75-30 [19]): > 50%; IC50 (HCT-15 [20]): 98.2 µM; inhibition (Asteroidea): > 50%; IC50 (MCF7 [21]): > 100 µM; IC50 (BT-20 [22]): > 100 µM; IC50 (A549 [23]): > 100 µM; inhibition [24]: > 50%; IC50 (MDA-MB-231 [25]): < 100 µM; inhibition [26]: > 50%; IC50 [27]: > 10 µM; IC50 [28]: < 10 µM; inhibition [29]: > 50%; inhibition of growth at 100 µM (MIA PaCa-2 [30]): > 50%; IC50 (PANC-1 [31]): > 100 µM
COc1ccc(-c2cc(Nc3ncnc4cc(OC)c(OC)cc34)n[nH]2)cc1 | > 10 µM | > 10 µM | > 10 µM | < 100 µM | < 100 µM | > 100 µM | > 50% | > 50% | > 50% | > 50% | > 50% | > 100 µM | > 50% | > 50% | > 50% | > 50% | > 50% | > 50% | > 50% | > 50% | inhibition of growth at 100 µM (BT-20 [17]): > 50%; IC50 (MDA-MB-468 [18]): 45.3 µM; inhibition of growth at 100 µM (ZR-75-30 [19]): > 50%; IC50 (HCT-15 [20]): < 100 µM; inhibition (Asteroidea): > 50%; IC50 (MCF7 [21]): > 100 µM; IC50 (BT-20 [22]): > 100 µM; IC50 (A549 [23]): > 100 µM; inhibition [24]: > 50%; IC50 (MDA-MB-231 [25]): < 100 µM; inhibition [26]: > 50%; IC50 [27]: > 10 µM; IC50 [28]: < 10 µM; inhibition [29]: > 50%; inhibition of growth at 100 µM (MIA PaCa-2 [30]): > 50%; IC50 (PANC-1 [31]): > 100 µM
